Reference: PubChem BioAssay AID248 (DTP/NCI, 2004)
“And” between values parts separate entries of the source, which are not always exact repeats. Equal values may be shown once. Toxic doses and inconclusive results are not listed.

Test system: L1210 leukemia ip in BDF1 mice, survival T/C
Experiment: NCI In Vivo Anticancer Drug Screen. Data for tumor model L1210 Leukemia (intraperitoneal) in B6D2F1 (BDF1) mice
Details: endpoint: mean survival time, higher = longer survival
In short: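 Each compound was tested against a transplantable tumor grown in mice. The endpoint was survival, with treated animals benchmarked against vehicle controls as a simple ratio.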

[1] = dose: 100.0 mg/kg/injection, schedule: Q04DX003 (ip), vehicle: Klucel (hydroxypropylcellulose) (HPC)
[2] = dose: 200.0 mg/kg/injection, schedule: Q04DX003 (ip), vehicle: Klucel (hydroxypropylcellulose) (HPC)
[3] = dose: 400.0 mg/kg/injection, schedule: Q04DX003 (ip), vehicle: Klucel (hydroxypropylcellulose) (HPC)
[4] = dose: 50.0 mg/kg/injection, schedule: Q01DX009 (ip), vehicle: saline with Tween-80
[5] = dose: 100.0 mg/kg/injection, schedule: Q01DX009 (ip), vehicle: saline with Tween-80
[6] = dose: 200.0 mg/kg/injection, schedule: Q01DX009 (ip), vehicle: saline with Tween-80
[7] = dose: 100.0 mg/kg/injection, schedule: Q04DX002 (ip), vehicle: saline with Tween-80
[8] = dose: 200.0 mg/kg/injection, schedule: Q04DX002 (ip), vehicle: saline with Tween-80
[9] = dose: 400.0 mg/kg/injection, schedule: Q04DX002 (ip), vehicle: saline with Tween-80
[10] = dose: 100.0 mg/kg/injection, schedule: Q04DX003 (ip), vehicle: saline
[11] = dose: 200.0 mg/kg/injection, schedule: Q04DX003 (ip), vehicle: saline
[12] = dose: 100.0 mg/kg/injection, schedule: Q04DX003 (ip), vehicle: saline with Tween-80
[13] = dose: 200.0 mg/kg/injection, schedule: Q04DX003 (ip), vehicle: saline with Tween-80
[14] = dose: 400.0 mg/kg/injection, schedule: Q04DX003 (ip), vehicle: saline with Tween-80
[15] = dose: 100.0 mg/kg/injection, schedule: Q01DX009 (ip), vehicle: saline
[16] = dose: 200.0 mg/kg/injection, schedule: Q01DX009 (ip), vehicle: saline
[17] = dose: 400.0 mg/kg/injection, schedule: Q01DX009 (ip), vehicle: saline
[18] = dose: 100.0 mg/kg/injection, schedule: Q04DX002 (ip), vehicle: Klucel (hydroxypropylcellulose) (HPC)
[19] = dose: 200.0 mg/kg/injection, schedule: Q04DX002 (ip), vehicle: Klucel (hydroxypropylcellulose) (HPC)
[20] = dose: 400.0 mg/kg/injection, schedule: Q04DX002 (ip), vehicle: Klucel (hydroxypropylcellulose) (HPC)
[21] = dose: 400.0 mg/kg/injection, schedule: Q01DX009 (ip), vehicle: saline with Tween-80

`COC(=O)C(CSC(=O)c1ccccc1)NC(=O)c1ccccc1` (centres undefined) was tested, and the T/C (dose: 25.0 mg/kg/injection, schedule: Q04DX003 (ip), vehicle: Klucel (hydroxypropylcellulose) (HPC)) was 100 % of control, the T/C (dose: 50.0 mg/kg/injection, schedule: Q04DX003 (ip), vehicle: Klucel (hydroxypropylcellulose) (HPC)) was 110 % of control and the T/C (dose: 100.0 mg/kg/injection, schedule: Q01DX001 (ip), vehicle: Klucel (hydroxypropylcellulose) (HPC)) was 97 % of control. For the same compound, the T/C [1] was 100 % of control, the T/C (dose: 200.0 mg/kg/injection, schedule: Q01DX001 (ip), vehicle: Klucel (hydroxypropylcellulose) (HPC)) was 100 % of control and the T/C (dose: 400.0 mg/kg/injection, schedule: Q01DX001 (ip), vehicle: Klucel (hydroxypropylcellulose) (HPC)) was 101 % of control.
`Cc1cc(Cl)ccc1NC(=O)Nc1ccc(Cl)c(Cl)c1` was tested, and the T/C [1] was 88 % of control, the T/C [2] was 90 % of control and the T/C [3] was 98 % of control and 88 % of control.
In the case of `COc1ccc2c(c1OC)CCCCC2=O`, the T/C [4] is reported as 102 % of control, the T/C [5] is reported as 98 % of control and the T/C [6] is reported as 91 % of control.
With `CCCCCCP(=O)(CCCCCC)CCCCCC` the T/C (dose: 44.0 mg/kg/injection, schedule: Q01DX Z (ip), vehicle: methylcellulose (MC)) was 89 % of control, the T/C (dose: 55.0 mg/kg/injection, schedule: Q01DX Z (ip), vehicle: methylcellulose (MC)) was 161 % of control and the T/C (dose: 66.0 mg/kg/injection, schedule: Q01DX Z (ip), vehicle: methylcellulose (MC)) was 93 % of control. The T/C (dose: 83.0 mg/kg/injection, schedule: Q01DX Z (ip), vehicle: methylcellulose (MC)) was 172 % of control, the T/C (dose: 100.0 mg/kg/injection, schedule: Q01DX Z (ip), vehicle: methylcellulose (MC)) was 96 % of control and the T/C [1] was 97 % of control. The T/C [2] was 110 % of control and the T/C [3] was 90 % of control.
In the case of `COC(=O)/C=C/C(=O)O`, the T/C (dose: 75.0 mg/kg/injection, schedule: Q01DX001 (ip), vehicle: carboxymethylcellulose (CMC)) is reported as 86 % of control.
`O=CC(O)C(Cl)C(Cl)C(O)CCl` (centres undefined) was tested, and the T/C [7] was 98 % of control, the T/C [8] was 98 % of control and the T/C [9] was 102 % of control.
For `CC(=O)C(C(C)=O)C1C=CC=CC=C1`, the T/C [4] was 93 % of control, the T/C [5] was 104 % of control and the T/C [10] was 95 % of control. For the same compound, the T/C [6] was 86 % of control and the T/C [11] was 122 % of control.
In the case of `CCN(CC)/N=N/c1[nH]ncc1C(N)=O`, the T/C (dose: 88.0 mg/kg/injection, schedule: Q01DX009 (ip), vehicle: saline with Tween-80) is reported as 119 % of control, the T/C (dose: 100.0 mg/kg/injection, schedule: Q01DX001 (ip), vehicle: saline with Tween-80) is reported as 111 % of control and the T/C [12] is reported as 101 % of control. The T/C (dose: 200.0 mg/kg/injection, schedule: Q01DX001 (ip), vehicle: saline with Tween-80) was 103 % of control, the T/C [13] was 103 % of control and the T/C (dose: 300.0 mg/kg/injection, schedule: Q01DX009 (ip), vehicle: saline with Tween-80) was 110 % of control. For the same compound, the T/C (dose: 400.0 mg/kg/injection, schedule: Q01DX001 (ip), vehicle: saline with Tween-80) was 106 % of control and the T/C [14] was 108 % of control.
In the case of `O=C(Nc1ccc(C2=NCCN2)cc1)c1ccc(C(=O)Nc2ccc(C3=NCCN3)cc2)c2ccccc12`, the T/C (dose: 3.75 mg/kg/injection, schedule: Q01DX Z (ip), vehicle: methylcellulose (MC)) is reported as 102 % of control, the T/C (dose: 7.5 mg/kg/injection, schedule: Q01DX Z (ip), vehicle: methylcellulose (MC)) is reported as 118 % of control and the T/C (dose: 15.0 mg/kg/injection, schedule: Q01DX Z (ip), vehicle: methylcellulose (MC)) is reported as 169 % of control. For the same compound, the T/C (dose: 30.0 mg/kg/injection, schedule: Q01DX Z (ip), vehicle: methylcellulose (MC)) was 166 % of control and 170 % of control, the T/C (dose: 30.0 mg/kg/injection, schedule: Q01DX Z (oral), vehicle: carboxymethylcellulose (CMC)) was 102 % of control and the T/C (dose: 120.0 mg/kg/injection, schedule: Q01DX Z (oral), vehicle: carboxymethylcellulose (CMC)) was 94 % of control.
With `N/C(Cc1ccc(Cl)cc1)=N/O` the T/C [1] was 104 % of control and the T/C [2] was 102 % of control.
In the case of `CC(=O)C1(C)CC=CCC1C(=O)O` (centres undefined), the T/C [15] is reported as 107 % of control, the T/C [10] is reported as 119 % of control and the T/C [16] is reported as 116 % of control. The T/C [11] was 101 % of control, the T/C [17] was 107 % of control and the T/C (dose: 400.0 mg/kg/injection, schedule: Q04DX003 (ip), vehicle: saline) was 106 % of control.
`CN1OCC2CCCC(c3ccccc3)C21` (centres undefined) was tested, and the T/C [1] was 97 % of control and the T/C [2] was 100 % of control.
`CC(C)(C)[Se]C(=N)N` was tested, and the T/C (dose: 18.8 mg/kg/injection, schedule: Q01DX001 (ip), vehicle: saline with Tween-80) was 101 % of control, the T/C (dose: 37.5 mg/kg/injection, schedule: Q01DX001 (ip), vehicle: saline with Tween-80) was 100 % of control and the T/C (dose: 50.0 mg/kg/injection, schedule: Q01DX001 (ip), vehicle: saline with Tween-80) was 107 % of control. The T/C (dose: 75.0 mg/kg/injection, schedule: Q01DX001 (ip), vehicle: saline with Tween-80) was 95 % of control.
With `O=C1C2C3CCC(C4OCCO4)(O3)C2C(=O)N1Cc1ccccc1` (centres undefined) the T/C [18] was 107 % of control, the T/C [19] was 103 % of control and the T/C [20] was 96 % of control.
For `COC1=CC(=O)C(C2CC(=O)c3c(O)cc(OC4OC(COC5OC(C)C(O)C(O)C5O)C(O)C(O)C4O)cc3O2)=CC1=O` (centres undefined), the T/C [15] was 95 % of control, the T/C [12] was 103 % of control and the T/C [16] was 97 % of control. For the same compound, the T/C [13] was 108 % of control, the T/C [17] was 88 % of control and the T/C [14] was 101 % of control.
`CC1=C/C(=N\N=C2/C=C(C)CC(C)(C)C2)CC(C)(C)C1` was tested, and the T/C (dose: 100.0 mg/kg/injection, schedule: Q01DX009 (ip), vehicle: Klucel (hydroxypropylcellulose) (HPC)) was 95 % of control, the T/C (dose: 200.0 mg/kg/injection, schedule: Q01DX009 (ip), vehicle: Klucel (hydroxypropylcellulose) (HPC)) was 105 % of control and the T/C (dose: 400.0 mg/kg/injection, schedule: Q01DX009 (ip), vehicle: Klucel (hydroxypropylcellulose) (HPC)) was 100 % of control.
For `NC1=NC(CCc2ccccc2)N(c2cccc(Cl)c2)C(N)=N1` (centres undefined), the T/C (dose: 6.25 mg/kg/injection, schedule: Q01DX001 (ip), vehicle: saline) was 104 % of control, the T/C (dose: 12.5 mg/kg/injection, schedule: Q01DX001 (ip), vehicle: saline) was 98 % of control and the T/C (dose: 25.0 mg/kg/injection, schedule: Q01DX001 (ip), vehicle: saline) was 106 % of control.
`Cc1ccc([N+](=O)[O-])cc1NC(=O)COc1ccc(Cl)cc1` was tested, and the T/C [5] was 91 % of control, the T/C [6] was 89 % of control and the T/C [21] was 89 % of control.
`CC(C)OC(=S)SCC(=O)c1ccccc1` was tested, and the T/C [18] was 92 % of control, the T/C [19] was 101 % of control and the T/C [20] was 99 % of control.
In the case of `CC1=CSCC(=O)N1`, the T/C [5] is reported as 97 % of control, the T/C [6] is reported as 101 % of control and the T/C [21] is reported as 105 % of control.
`O=P(Nc1ccccc1)(Nc1ccccc1)Nc1ccccc1` was tested, and the T/C (dose: 50.0 mg/kg/injection, schedule: Q04DX002 (ip), vehicle: gum acacia) was 95 % of control, the T/C (dose: 100.0 mg/kg/injection, schedule: Q01DX009 (ip), vehicle: gum acacia) was 100 % of control and the T/C (dose: 100.0 mg/kg/injection, schedule: Q04DX002 (ip), vehicle: gum acacia) was 95 % of control. For the same compound, the T/C (dose: 200.0 mg/kg/injection, schedule: Q01DX009 (ip), vehicle: gum acacia) was 97 % of control, the T/C (dose: 200.0 mg/kg/injection, schedule: Q04DX002 (ip), vehicle: gum acacia) was 92 % of control and the T/C (dose: 400.0 mg/kg/injection, schedule: Q01DX009 (ip), vehicle: gum acacia) was 89 % of control.
`c1ccc(C2c3ccccc3C(c3ccccc3)(c3ccccc3)c3ccccc32)cc1` was tested, and the T/C (dose: 100.0 mg/kg/injection, schedule: Q01DX001 (ip), vehicle: other) was 91 % of control, the T/C (dose: 200.0 mg/kg/injection, schedule: Q01DX001 (ip), vehicle: other) was 91 % of control and the T/C (dose: 400.0 mg/kg/injection, schedule: Q01DX001 (ip), vehicle: other) was 91 % of control.
For `Cc1ccc(NCN2C(=O)c3ccccc3C2=O)c(C)c1`, the T/C [1] was 105 % of control, the T/C [2] was 106 % of control and the T/C [3] was 94 % of control.
For `O=P(O)(Nc1ccccc1)Nc1ccccc1`, the T/C [7] was 113 % of control, the T/C [8] was 103 % of control and the T/C [9] was 113 % of control.
`CCOC(=O)C(Br)(C(=O)OCC)C(C)C` was tested, and the T/C [15] was 101 % of control, the T/C [16] was 95 % of control and the T/C [17] was 100 % of control.
